Data reported in patent publication EP0768085A1, “ANTIBACTERIAL AGENT” (DAIICHI PHARMACEUTICAL CO., LTD., priority 1994, dated 1996).
Values after ≈ are worked out from the molar mass of the structure shown.

Columns and labels:
Assay type in all cases: cell-based
[1] = tested on: Pasteurella multocida (Kobe-6); assay: Antibacterial activity (IC), agar as in Example 8 (Example 17, Table 50); settings: 18 h, origin pig
Method in brief: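 Agar dilution on Mueller-Hinton agar with compound at 100, 10 and 1 µg/ml, inoculated at 10^6 CFU/ml with pig-origin strain Kobe-6. After 18 h at 37 °C, IC scored from turbidity and reported as a band (≤100, ≤10, ≤1 µg/ml).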

[2] = tested on: Streptococcus aureus (TI-1); assay: Antibacterial activity (IC), agar as in Example 8 (Example 16, Table 49); settings: 18 h
Method in brief: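 Broth-grown […] aureus (TI-1) inoculated onto Mueller-Hinton agar containing compound, per the MRSA method; DMSO/water dilutions at final 100, 10 and 1 µg/ml, 10^6 CFU/ml inoculum. After 18 h at 37°C, growth inhibition judged by turbidity; IC reported as bands (100-10, 10-1, ≤1 µg/ml).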

[3] = tested on: methicillin-resistant Staphylococcus aureus (MRSA) from humans; assay: Antibacterial activity (IC), agar as in Example 8 (Example 19, Table 52); settings: 18 h
Method in brief: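 MRSA human isolate at 10^6 CFU/ml on Mueller-Hinton agar containing compound at 100, 10 or 1 µg/ml, grown 18 h at 37 °C. IC is the lowest tested level that inhibited growth, binned as ≤100, ≤10 or ≤1 µg/ml.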

[4] = tested on: Bordetella bronchiseptica (SM2-4); assay: Antibacterial activity (IC), agar as in Example 8 (Example 18, Table 51); settings: 18 h
Experimental: (§1) The antibacterial action was evaluated by the inhibitory concentration (hereinafter abbreviated as IC) at which propagation of the bacteria cultured at 37°C for 18 hours was inhibited. Inhibition was determined by the turbidity of the medium. The expressions "IC≤100", "≤10", and "≤1" indicate that MIC-equivalent values obtained at the succesive […] dilution of the sample are 100-10 µg/ml, 10-1 µg/ml, and not more than 1 µg/ml, respectively. […] (In the subsequent Examples, the same rule applies correspondingly.) Table 39
(§2) A suitable amount of a sample was dissolved in dimethylsulfoxide (DMSO), after which the resulting solution was diluted with the same amount of sterilized distilled water to prepare a bulk sample of 1,000 µg/ml. Separately, a bacterial liquid for the test (methicillin-resistant Staphylococcus aureus (MRSA) isolated from humans) which had been cultured in Mueller-Hinton broth (product of DIFCO) was prepared and inoculated to a Mueller-Hinton agar (product of DIFCO) containing the sample so that the final inoculation amount of 10^6 CFU/ml was achieved. The final concentrations of the samples were 100, 10, and 1 µg/ml.
(§3) After culturing at 37°C for 18 hours, the antibacterial activity was evaluated in terms of IC in a manner similar to that described in Example 4.
(§4) In a manner similar to that described in Example 8, antibacterial activity of the invention compound was determined. The bacterium used for the test was Bordetella bronchiseptica (S1) and Bordetella bronchiseptica (SM2-4).

[5] = tested on: Bordetella bronchiseptica (S1); assay: as above; settings: 18 h
Experimental: as §1, §2, §3, §4

[6] = tested on: Pasteurella from fish; assay: Antibacterial activity (IC), agar as in Example 8, media with 1.5% NaCl, 25°C (Example 20, Tables 53-55); settings: for MIC: Pasteurella piscicida KP94-02
Method in brief: (§5)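 Growth inhibition was scored by turbidity after culture at 25°C, with IC bands set from 2-fold-dilution MIC-equivalents. Samples were tested at final 100, 10 and 1 µg/ml in Mueller-Hinton agar with 1.5% NaCl, seeded with 10^6 CFU/ml of the fish isolates.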

[7] = tested on: Enterococcus from fish; assay: as above; settings: for MIC: Enterococcus Seriolicida SE94-002
Method in brief: as §5

[8] = tested on: Staphylococcus aureus (209-P); assay: Antibacterial activity (IC), agar as in Example 8 (Example 15, Table 48); settings: 18 h
Method in brief: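 Agar dilution with Mueller-Hinton agar containing sample at final 100, 10 and 1 µg/ml, inoculated to 10^6 CFU/ml. Incubated at 37°C for 18 h, growth inhibition judged by medium turbidity. IC bands at successive 2-fold dilution: 100-10, 10-1, or ≤1 µg/ml.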

[9] = tested on: Pasteurella multocida (Kobe-6); assay: Antibacterial activity (IC), broth microplate as in Example 4 (Example 6, Table 41); settings: 18 h, origin pig
Experimental: (§6) A suitable amount of a sample was dissolved in dimethylsulfoxide (DMSO), and the resultant solution was diluted with the same amount of sterilized distilled water to prepare a bulk sample of 1,000 µg/ml. Mueller-Hinton broth (product of DIFCO) was dispensed into each well of 96-well microplate. Thereafter, the bulk specimen was added to the first well of a row, and successively diluted (10-fold each time) with sterilized distilled water. Separately, a bacterial cell suspension for the test (Staphylococcus aureus 209-P) which had been cultured in the above-mentioned broth overnight at 37°C was inoculated to each well so that the final inoculation amount of 10^6 CFU/ml was attained. The final concentrations of the samples were 100, 10, and 1 µg/ml.
as §1
In a manner similar to that described in Example 4, antibacterial activity of the invention compound was determined. The bacterium used for the test was Pasteurella Kobe-6 (origin: pig; Pasteurella multocida).

[10] = tested on: Staphylococcus aureus TI-1; assay: Antibacterial activity (IC), broth microplate as in Example 4 (Example 5, Table 40); settings: TI1, 18 h
Experimental: as §6, §1
In a manner similar to that described in Example 4, antibacterial activity of the invention compound was determined. The bacterium used for the test was Staphylococcus aureus TI-1.

[11] = tested on: methicillin-resistant Staphylococcus aureus (MRSA) isolated from humans; assay: Antibacterial activity (IC), Mueller-Hinton agar containing the sample (Example 8, Table 43); settings: Staphylococcus aureus, MRSA, 18 h
Experimental: as §1, §2, §3

[12] = tested on: Bordetella bronchiseptica (SM2-4); assay: Antibacterial activity (IC), broth microplate as in Example 4 (Example 7, Table 42); settings: 18 h
Experimental: as §6, §1
In a manner similar to that described in Example 4, antibacterial activity of the invention compound was determined. The bacterium used for the test was Bordetella bronchiseptica (SM2-4).

[13] = tested on: Staphylococcus aureus 209-P; assay: Antibacterial activity (IC), Mueller-Hinton broth, 96-well microplate (Example 4, Table 39); settings: 37°C, 18 hours
Experimental: as §6, §1

[14] = Enterococcus Seriolicida KG86050
[15] = Enterococcus Seriolicida MS89060
[16] = Enterococcus Seriolicida MS89064
[17] = Enterococcus Seriolicida MS89066
[18] = Enterococcus Seriolicida MS89068
[19] = Enterococcus Seriolicida SE94-001
[20] = Enterococcus Seriolicida SE94-003
[21] = Enterococcus Seriolicida SE94-004
[22] = Enterococcus Seriolicida SE94-005

| SMILES | MIC [1] | MIC [2] | MIC ([3]; MRSA strain 891179) | MIC ([3]; MRSA strain 891185) | MIC ([3]; MRSA strain 891187) | MIC ([3]; MRSA strain 891192) | MIC ([3]; MRSA strain 900048) | MIC ([3]; MRSA strain 900056) | MIC [4] | MIC [5] | MIC [6] | IC ([6]; Pasteurella piscicida KP94-04) | IC ([6]; Pasteurella piscicida KP94-05) | IC ([6]; Pasteurella piscicida KP94-06) | IC ([7]; Enterococcus Seriolicida HI) | IC [7, 14] | IC [7, 15] | IC [7, 16] | IC [7, 17] | IC [7, 18] | other results |
| --- | --- | --- | --- | --- | --- | --- | --- | --- | --- | --- | --- | --- | --- | --- | --- | --- | --- | --- | --- | --- | --- |
| CC(Oc1cc(Cl)cc(Oc2ccc(C(F)(F)F)cc2Cl)c1)C(=O)C(C#N)c1cccc(Br)c1 (stereo not drawn) [compound 213] | 1 to 10 µg/mL (≈ 1.74 to 17.4 µM) | 1 to 10 µg/mL (≈ 1.74 to 17.4 µM) | 1 to 10 µg/mL (≈ 1.74 to 17.4 µM) | ≤ 1 µg/mL | ≤ 1 µg/mL | ≤ 1 µg/mL | 1 to 10 µg/mL (≈ 1.74 to 17.4 µM) | 1 to 10 µg/mL (≈ 1.74 to 17.4 µM) | 10 to 100 µg/mL (≈ 17.4 to 174 µM) | 10 to 100 µg/mL (≈ 17.4 to 174 µM) | 1 to 10 µg/mL (≈ 1.74 to 17.4 µM) | ≤10 (10-1 µg/ml) | ≤10 (10-1 µg/ml) | ≤10 (10-1 µg/ml) | ≤ 1 µg/mL | ≤ 1 µg/mL | ≤ 1 µg/mL | ≤ 1 µg/mL | ≤ 1 µg/mL | ≤ 1 µg/mL | IC [7, 19]: ≤ 1 µg/mL; MIC [7]: ≤ 1 µg/mL; IC [7, 20]: ≤ 1 µg/mL; IC [7, 21]: ≤ 1 µg/mL; IC [7, 22]: ≤ 1 µg/mL; MIC [8]: 1 to 10 µg/mL (≈ 1.74 to 17.4 µM) |
| Cc1cc(Oc2ccc(C(F)(F)F)cc2Cl)ccc1OC(C)C(=O)C(C#N)c1cccc(Br)c1 (stereo not drawn) [compound 47] | – | – | – | – | – | – | – | – | – | – | – | – | – | – | – | – | – | – | – | – | MIC [9]: 10 to 100 µg/mL (≈ 18.1 to 181 µM); MIC [10]: ≤ 1 µg/mL; MIC ([11]; MRSA strain 891179, 37°C): 1 to 10 µg/mL (≈ 1.81 to 18.1 µM); MIC ([11]; MRSA strain 891185, 37°C): 1 to 10 µg/mL (≈ 1.81 to 18.1 µM); MIC ([11]; MRSA strain 891187, 37°C): 1 to 10 µg/mL (≈ 1.81 to 18.1 µM); MIC ([11]; MRSA strain 891192, 37°C): 1 to 10 µg/mL (≈ 1.81 to 18.1 µM); MIC ([11]; MRSA strain 900048, 37°C): 1 to 10 µg/mL (≈ 1.81 to 18.1 µM); MIC ([11]; MRSA strain 900056, 37°C): 1 to 10 µg/mL (≈ 1.81 to 18.1 µM); MIC [12]: 10 to 100 µg/mL (≈ 18.1 to 181 µM); MIC [13]: 1 to 10 µg/mL (≈ 1.81 to 18.1 µM) |
| Cc1cc(OC(C)C(=O)C(C#N)c2cccc(Br)c2)ccc1Oc1ccc(C(F)(F)F)cc1Cl (stereo not drawn) [compound 45] | – | – | – | – | – | – | – | – | – | – | – | – | – | – | – | – | – | – | – | – | MIC [9]: 1 to 10 µg/mL (≈ 1.81 to 18.1 µM); MIC [10]: ≤ 1 µg/mL; MIC ([11]; MRSA strain 891179, 37°C): 1 to 10 µg/mL (≈ 1.81 to 18.1 µM); MIC ([11]; MRSA strain 891185, 37°C): 1 to 10 µg/mL (≈ 1.81 to 18.1 µM); MIC ([11]; MRSA strain 891187, 37°C): 1 to 10 µg/mL (≈ 1.81 to 18.1 µM); MIC ([11]; MRSA strain 891192, 37°C): 1 to 10 µg/mL (≈ 1.81 to 18.1 µM); MIC ([11]; MRSA strain 900048, 37°C): 1 to 10 µg/mL (≈ 1.81 to 18.1 µM); MIC ([11]; MRSA strain 900056, 37°C): 1 to 10 µg/mL (≈ 1.81 to 18.1 µM); MIC [12]: 10 to 100 µg/mL (≈ 18.1 to 181 µM); MIC [13]: 1 to 10 µg/mL (≈ 1.81 to 18.1 µM) |
| CC(Oc1cc(Cl)cc(Oc2ccc(C(F)(F)F)cc2Cl)c1)C(=O)C(C#N)c1ccc(Cl)c(Cl)c1 (stereo not drawn) [compound 212] | 1 to 10 µg/mL (≈ 1.78 to 17.8 µM) | ≤ 1 µg/mL | ≤ 1 µg/mL | ≤ 1 µg/mL | ≤ 1 µg/mL | ≤ 1 µg/mL | ≤ 1 µg/mL | ≤ 1 µg/mL | 10 to 100 µg/mL (≈ 17.8 to 178 µM) | 10 to 100 µg/mL (≈ 17.8 to 178 µM) | 1 to 10 µg/mL (≈ 1.78 to 17.8 µM) | ≤10 (10-1 µg/ml) | ≤10 (10-1 µg/ml) | ≤10 (10-1 µg/ml) | ≤ 1 µg/mL | ≤ 1 µg/mL | ≤ 1 µg/mL | ≤ 1 µg/mL | ≤ 1 µg/mL | ≤ 1 µg/mL | IC [7, 19]: ≤ 1 µg/mL; MIC [7]: ≤ 1 µg/mL; IC [7, 20]: ≤ 1 µg/mL; IC [7, 21]: ≤ 1 µg/mL; IC [7, 22]: ≤ 1 µg/mL; MIC [8]: ≤ 1 µg/mL |
